row,glass transition temperature [°C],Compound
1,267.00,*C(=O)Nc1ccc(Oc2ccc(C3(c4ccc(Oc5ccc(NC(=O)c6ccc7c(c6)C(=O)N(c6ccc(Oc8cccc(Oc9ccc(N%10C(=O)c%11ccc(*)cc%11C%10=O)cc9)c8)cc6)C7=O)cc5)cc4)NC(=O)c4ccccc43)cc2)cc1 (repeat unit)
2,262.00,*c1ccc2c(c1)C(=O)N(c1cccc(C(O)c3cccc(N4C(=O)c5ccc(C(*)(C(F)(F)F)C(F)(F)F)cc5C4=O)c3)c1)C2=O (repeat unit)
3,252.00,*C(=O)Nc1ccc(S(=O)(=O)c2ccc(NC(=O)c3ccc(N4C(=O)c5ccc(*)cc5C4=O)cc3)cc2)cc1 (repeat unit)
4,36.00,*CC(*)(C)C(=O)OCCCCCCOc1ccc(OC(=O)c2ccc(OCCCC)cc2)cc1 (repeat unit)
5,253.00,*Nc1ccc(Br)cc1-c1ccc(NC(=O)c2cccc(C(*)=O)c2)cc1 (repeat unit)
6,147.00,*Oc1cccc(NC(=O)c2ccc(Oc3ccc(C(C)(C)c4cccc(C(C)(C)c5ccc(Oc6ccc(C(=O)Nc7ccc(*)cc7)cc6)cc5)c4)cc3)cc2)c1 (repeat unit)
7,261.00,*c1cccc(C(=O)Nc2cccc(S(=O)(=O)c3cccc(NC(=O)c4cccc(N5C(=O)c6ccc(-c7cccc8c7C(=O)N(*)C8=O)cc6C5=O)c4)c3)c2)c1 (repeat unit)
8,100.00,*CC(*)(C)C(=O)Oc1ccc(C(=O)Oc2ccc(-c3ccccc3)cc2)cc1 (repeat unit)
9,152.00,*Oc1ccc(C(=O)c2ccc(Oc3ccc(C(=O)c4cccc(C(=O)c5ccc(*)cc5)c4)cc3)cc2)cc1 (repeat unit)
10,327.00,*c1ccc(OC(=O)c2ccc(C(=O)Oc3ccc(C4(*)NC(=O)c5ccccc54)cc3)cc2)cc1 (repeat unit)
11,175.00,*Oc1ccc(C(=O)NNC(=O)c2ccc(C(=O)NNC(=O)c3ccc(OC(=O)c4cccc(C(*)=O)c4)cc3)cc2)cc1 (repeat unit)
12,282.50,*c1ccc(OC(=O)c2cccc(C(=O)Oc3ccc(C4(*)OC(=O)c5ccccc54)cc3)c2)cc1 (repeat unit)
13,342.00,*C(=O)Nc1ccc(S(=O)(=O)c2ccc(NC(=O)c3ccc4c(c3)C(=O)N(c3cccc(N5C(=O)c6ccc(*)cc6C5=O)c3)C4=O)cc2)cc1 (repeat unit)
14,56.00,*O[Si](*)(c1ccccc1)c1ccc(OC(C)(C)C)cc1 (repeat unit)
15,259.00,*c1ccc(Cc2ccc(N3C(=O)c4ccc(Oc5ccc(Oc6ccc7c(c6)C(=O)N(*)C7=O)cc5)cc4C3=O)cc2)cc1 (repeat unit)
16,266.00,*c1ccc(Oc2ccc(-c3cc(-c4ccccc4)c4cc(Oc5ccc6nc(*)cc(-c7ccccc7)c6c5)ccc4n3)cc2)cc1 (repeat unit)
17,265.00,*c1c(C)cc(Cc2cc(C)c(N3C(=O)c4ccc(Oc5cc6ccccc6cc5Oc5ccc6c(c5)C(=O)N(*)C6=O)cc4C3=O)c(C)c2)cc1C (repeat unit)
18,176.00,*c1cccc(Oc2cccc(Oc3cccc(Oc4cccc(Oc5cccc(N6C(=O)c7ccc(Oc8ccc9c(c8)C(=O)N(*)C9=O)cc7C6=O)c5)c4C#N)c3)c2C#N)c1 (repeat unit)
19,56.00,*CCCOCCCCOCCCN1C(=O)c2ccc(C(=O)Oc3ccc(OC(=O)c4ccc5c(c4)C(=O)N(*)C5=O)cc3)cc2C1=O (repeat unit)
20,275.50,*c1ccc(C(=O)c2ccc(-n3nc(-c4ccccc4)c4cc(Oc5ccc6c(-c7ccccc7)nn(*)c(=O)c6c5)ccc4c3=O)cc2)cc1 (repeat unit)
21,125.00,*Oc1cccc(NC(=O)CCCCCCCCC(=O)Nc2ccc(*)cc2)c1 (repeat unit)
22,215.00,*c1ccc(C(c2ccc(N(*)c3ccc(C)cc3)cc2)c2ccc([N+](=O)[O-])cc2)cc1 (repeat unit)
23,122.00,*CC(*)c1ccc(COc2ccc(-c3ccc(-c4ccc(-c5ccc(CCCCCC)s5)s4)c4nsnc34)cc2)cc1 (repeat unit)
24,115.00,*Oc1c(Br)cc(C(C)(C)c2cc(Br)c(OC(=O)c3cccc(C(*)=O)c3)c(Br)c2)cc1Br (repeat unit)
25,211.00,*Oc1ccc(/N=C/c2ccc(Oc3ccc(C(c4ccccc4)(c4ccccc4)c4ccc(Oc5ccc(/C=N/c6ccc(*)cc6)cc5)cc4)cc3)cc2)cc1 (repeat unit)

# Further lines, the molecule ahead of its results:
row,Compound,glass transition temperature [°C]
1,*CC#CCOC(=O)CCCCCCC(=O)O* (repeat unit),-38.00
2,*CC(C)(C)CS(=O)(=O)CC(C)(C)COC(=O)Nc1ccc(Cc2ccc(NC(=O)O*)cc2)cc1 (repeat unit),90.00
3,*Nc1ccc(NC(=O)CCCCC(*)=O)cc1 (repeat unit),133.00
4,*CCCCCCOP(=O)(/N=N/c1ccc(Oc2ccc(/N=N/P(=O)(O*)OC)cc2)cc1)OC (repeat unit),25.00
5,*CC(*)c1ccc(CCCCCC)cc1 (repeat unit),-27.00
6,*CC(*)CC[Si](C)(C)C (repeat unit),132.00
7,*OC(C)(CC(*)=O)C(F)(F)F (repeat unit),27.00
8,*CC(*)c1ccc(C(=O)OCC(C)C)cc1 (repeat unit),90.00
9,*/C=C/C(COCc1ccccc1)C(*)COCc1ccccc1 (repeat unit),-4.00
10,*c1nc(C)nc(N(CCCCCCCCCCN(*)c2ccccc2)c2ccccc2)n1 (repeat unit),48.00
11,*CC(*)c1ccc(C(O)CCN2CCCCC2)cc1 (repeat unit),54.00
12,*c1ccc2c(c1)C(=O)N(c1cc(-c3ccc(O)c(N4C(=O)c5ccc(C(*)(C(F)(F)F)C(F)(F)F)cc5C4=O)c3)ccc1O)C2=O (repeat unit),370.00
13,*CC(*)NC(=O)OC(C)(C)C (repeat unit),120.00
14,*C1C2CC(CCCCCCCCC(=O)OCC)C(C2)C1* (repeat unit),134.00
15,*COc1ccc(C(c2ccc(O*)cc2)(C(F)(F)F)C(F)(F)F)cc1 (repeat unit),123.00
16,*CCC1C(=O)N(CCCCCC)C(=O)C1* (repeat unit),41.50
17,*CC(*)(CC(=O)O)C(=O)O (repeat unit),141.00
18,*/C=C/C1CC(*)C2C(=O)N(c3ccc(C)cc3)C(=O)C12 (repeat unit),222.00
19,*CC(*)(F)C(F)(F)F (repeat unit),49.00
20,*CC(F)(F)C(F)(F)C(F)(F)COC(=O)NCCCCCCNC(=O)O* (repeat unit),16.00
21,*Sc1ccc(Cc2ccc(SC(*)=O)cc2)cc1 (repeat unit),117.00
22,*C1C(=O)N(c2cc(Br)c(O[Si](C)(C)C(C)(C)C)c(Br)c2)C(=O)C1* (repeat unit),164.00
23,*CC(*)OC(=O)c1ccc([Si](C)(C)C)cc1 (repeat unit),130.50
24,*CCCCCOC(=O)NCC(F)(F)C(F)(F)C(F)(F)C(F)(F)CNC(=O)O* (repeat unit),33.00

# Reference: the PolyMetriX glass transition set
